Experimental findings from patent US7531540B2, “Phthalazinone-piperidino-derivatives as PDE4 inhibitors” (Nycomed GmbH, priority 2001, dated 2009) are described below.

The subject of data set [1] is PDE4. Description: Inhibition of PDE4 activity ([3H]cAMP hydrolysis, cytosol from human neutrophils). It is filed as biochemical. The note with it: 0.5 μM cAMP, Motapizone (1 μM) included to suppress PDE3 activity, 15 min at 37° C. The method, then:
Method for Measuring Inhibition of PDE4 Activity
PDE4 activity was determined as described by Thompson et al. (Adv Cycl Nucl Res 10: 69-92, 1979) with some modifications (Bauer and Schwabe, Naunyn-Schmiedeberg's Arch Pharmacol 311: 193-198, 1980). At a final assay volume of 200 μl (96 well microtiter plates) the assay mixture contained 20 mM Tris (pH 7.4), 5 mM MgCl2, 0.5 μM cAMP, [^3H]cAMP (about 30,000 cpm/assay), the test compound and an aliquot of cytosol from human neutrophils which mainly contains PDE4 activity as described by Schudt et al. (Naunyn-Schmiedeberg's Arch Pharmacol 344: 682-690, 1991); the PDE3-specific inhibitor Motapizone (1 μM) was included to suppress PDE3 activity originating from contaminating platelets. Serial dilutions of the compounds were prepared in DMSO and further diluted 1:100 (v/v) in the assays to obtain the desired final concentrations of the inhibitors at a DMSO concentration of 1% (v/v) which by itself only slightly affected PDE4 activity.
After preincubation for 5 min at 37° C., the reaction was started by the addition of substrate (cAMP) and the assays were incubated for further 15 min at 37° C. 50 μl of 0.2 N HCl was added to stop the reaction and the assays were left on ice for about 10 min. Following incubation with 25 μg 5′-nucleotidase (Crotalus atrox snake venom) for 10 min at 37° C., the assays were loaded on QAE Sephadex A-25 (1 ml bed volume). The columns were eluted with 2 ml of 30 mM ammonium formiate (pH 6.0) and the eluate was counted for radioactivity. Results were corrected for blank values (measured in the presence of denatured protein) which were below 5% of total radioactivity. […] The IC50 -values for the compounds according to the invention for the inhibition of the PDE4 activity were determined from the concentration-inhibition curves by nonlinear-regression.
The inhibitory values determined for the compounds according to the invention follow from the following table A, in which the numbers of the compounds correspond to the numbers of the examples.

Compound `COc1ccc(C2=NN(C3CCN(Cc4ccncc4)CC3)C(=O)[C@@H]3CC=CC[C@H]23)cc1OC` [compound 12, (4aS,8aR)-4-(3,4-Dimethoxyphenyl)-2-(1-pyridin-4-ylmethyl-piperidin-4-yl)-4a,5,8,8a-tetrahydro-2H-phthalazin-1-one] came in with a melting point of 196 to 197 °C. For the same compound, the “Inhibition of PDE4 acitivity [measured as -logIC50 (mol/l)]” value in data set [1] came out at 10.79.
Taken in the same sequence, the figures for `COc1ccc(C2=NN(C3CCN(C(=O)N4CCOCC4)CC3)C(=O)[C@@H]3CC=CC[C@H]23)cc1OC` [compound 13, (4aS,8aR)-4-(3,4-Dimethoxyphenyl)-2-[1-(morpholine-4-carbonyl)-piperidin-4-yl]-4a,5,8,8a-tetrahydro-2H-phthalazin-1-one] were 184 to 185 °C and 10.03.
Taken in the same sequence, the figures for `COc1ccc(C2=NN(C3CCN(CC(=O)c4cc(Cl)c(N)c(Cl)c4)CC3)C(=O)[C@@H]3CC=CC[C@H]23)cc1OC.Cl` [compound 14, (4aS,8aR)-2-{1-[2-(4-Amino-3,5-dichloro-phenyl)-2-oxo-ethyl]-piperidin-4-yl}-4-(3,4-dimethoxy-phenyl)-4a,5,8,8a-tetrahydro-2H-phthalazin-1-one hydrochloride] were 206 °C (dec.) and 10.33.
Taken in the same sequence, the figures for `COc1ccc(C2=NN(C3CCN(c4ncnc5sccc45)CC3)C(=O)[C@@H]3CC=CC[C@H]23)cc1OC` [compound 16, (4aS,8aR)-4-(3,4-Dimethoxyphenyl)-2-(1-thieno[2,3-d]pyrimidin-4-yl-piperidin-4-yl)-4a,5,8,8a-tetrahydro-2H-phthalazin-1-one] were 219 to 220 °C and 10.50.
For the compound `COc1ccc(C2=NN(C3CCN(Cc4ccc5ccc(=O)oc5c4)CC3)C(=O)[C@@H]3CC=CC[C@H]23)cc1OC.Cl` [compound 18, (4aS,8aR)-4-(3,4-Dimethoxyphenyl)-2-[1-(2-oxo-2H-chromen-7-ylmethyl)-piperidin-4-yl]-4a,5,8,8a-tetrahydro-2H-phthalazin-1-one hydrochloride], the melting point lay in the range of 264 to 267 °C. Moreover, the “Inhibition of PDE4 acitivity [measured as -logIC50 (mol/l)]” value in data set [1] is 10.32.
Taken in the same sequence, the figures for `COc1ccc(C2=NN(C3CCN(Cc4ccccn4)CC3)C(=O)[C@@H]3CC=CC[C@H]23)cc1OC.Cl.Cl` [compound 24, (4aS,8aR)-4-(3,4-Dimethoxy-phenyl)-2-(1-pyridin-2-ylmethyl-piperidin-4-yl)-4a,5,8,8a-tetrahydro-2H-phthalazin-1-one dihydrochloride] were 214 to 216 °C and 10.63.

One may read the melting point as the temperature, or range, at which the solid turns liquid.
